Results published in ChEMBL document CHEMBL1201862, “PubChem BioAssay data set” (2004).
Activity calls are given as the source filed them.

What was measured:
Estrogen receptor = molecular target: T1, Estrogen receptor (Homo sapiens, UniProt P03372); assay: ERα coactivator recruitment enhancers – biochemical, TR-FRET, ERα LBD, dose response (AID 737)
T1 sequence (P03372 whole entry): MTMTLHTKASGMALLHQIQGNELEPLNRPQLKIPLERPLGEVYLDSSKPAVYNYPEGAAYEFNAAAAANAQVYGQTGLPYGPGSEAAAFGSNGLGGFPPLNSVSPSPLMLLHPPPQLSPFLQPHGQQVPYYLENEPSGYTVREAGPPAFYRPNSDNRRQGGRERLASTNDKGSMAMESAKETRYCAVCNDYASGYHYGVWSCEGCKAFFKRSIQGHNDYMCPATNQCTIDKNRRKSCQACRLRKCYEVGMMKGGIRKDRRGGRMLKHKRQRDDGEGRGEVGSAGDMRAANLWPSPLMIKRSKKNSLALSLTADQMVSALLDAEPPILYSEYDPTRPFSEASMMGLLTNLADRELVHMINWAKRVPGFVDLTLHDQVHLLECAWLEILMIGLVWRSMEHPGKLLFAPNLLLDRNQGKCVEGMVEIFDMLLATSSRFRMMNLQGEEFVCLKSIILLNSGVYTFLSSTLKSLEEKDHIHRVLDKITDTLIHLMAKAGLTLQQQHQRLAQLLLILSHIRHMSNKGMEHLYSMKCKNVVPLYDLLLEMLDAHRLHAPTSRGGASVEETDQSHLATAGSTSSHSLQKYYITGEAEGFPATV

[1] = molecular target: T2, Heat shock factor protein 1 (Mus musculus, UniProt P38532); assay: decrease of HSF1-responsive luciferase luminescence – cell-based, NIH3T3, dose retest, confirmation (AID 2382); assay type: functional;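 further: NIH3T3 fibroblasts with HSF1-driven luciferase reporter stressed by proteasome inhibitor MG132; luminescence from HSF1-driven luciferase expression after 8 hours of MG132 stress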
T2 sequence (P38532 whole entry): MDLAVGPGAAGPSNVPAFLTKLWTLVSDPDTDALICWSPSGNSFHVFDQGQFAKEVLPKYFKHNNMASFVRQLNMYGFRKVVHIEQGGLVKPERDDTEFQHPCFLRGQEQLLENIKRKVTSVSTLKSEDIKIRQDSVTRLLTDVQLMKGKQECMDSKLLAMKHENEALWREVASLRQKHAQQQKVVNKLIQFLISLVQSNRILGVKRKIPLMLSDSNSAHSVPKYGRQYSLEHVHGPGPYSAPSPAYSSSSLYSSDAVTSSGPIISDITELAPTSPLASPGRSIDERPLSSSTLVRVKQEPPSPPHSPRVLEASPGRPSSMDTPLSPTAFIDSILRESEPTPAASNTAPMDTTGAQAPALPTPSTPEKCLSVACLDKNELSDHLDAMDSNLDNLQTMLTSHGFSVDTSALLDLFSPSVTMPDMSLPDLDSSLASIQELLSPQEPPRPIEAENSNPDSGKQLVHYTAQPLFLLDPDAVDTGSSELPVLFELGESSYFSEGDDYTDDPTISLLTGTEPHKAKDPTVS

[2] = molecular target: Protein disulfide-isomerase (Homo sapiens, UniProt P07237); assay: inhibition of PDI-driven insulin aggregation – biochemical, turbidity, absorbance, cherry-picked samples, dose response (AID 602350); assay type: functional
Sequence of Protein disulfide-isomerase (P07237 whole entry, the tested form may be a part): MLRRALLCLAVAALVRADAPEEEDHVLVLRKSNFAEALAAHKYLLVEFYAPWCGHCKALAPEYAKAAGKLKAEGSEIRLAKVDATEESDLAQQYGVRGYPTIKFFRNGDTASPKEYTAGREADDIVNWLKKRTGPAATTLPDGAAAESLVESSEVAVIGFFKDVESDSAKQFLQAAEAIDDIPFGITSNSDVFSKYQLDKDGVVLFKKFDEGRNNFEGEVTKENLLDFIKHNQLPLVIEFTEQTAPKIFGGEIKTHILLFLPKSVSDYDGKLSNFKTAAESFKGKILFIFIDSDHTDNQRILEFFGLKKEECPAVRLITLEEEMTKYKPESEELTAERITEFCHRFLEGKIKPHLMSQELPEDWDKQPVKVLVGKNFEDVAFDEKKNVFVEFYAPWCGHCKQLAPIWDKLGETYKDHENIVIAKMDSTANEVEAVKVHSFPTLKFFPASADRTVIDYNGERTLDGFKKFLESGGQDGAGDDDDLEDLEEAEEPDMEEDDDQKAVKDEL

[3] = HIV-1 AD8 envelope cell-cell fusion blockers – cherry-pick, dose response (AID 652062); assay type: functional, cell-based;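 further: luciferase signal from cell-cell fusion driven by HIV-1 clade B AD8 Env; potency is for inhibitors of fusion seen as a drop in luminescence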
[4] = loss of viability in HepG2 cells – cell-based, CellTiter-Glo, cherry-picked, cytotoxicity control for Shn3 inhibitor project, dose response (AID 624134); assay type: functional
[5] = A549 cell cytotoxicity, dose response, cytotoxicity control, plate reader, cherry-pick, antagonist series (AID 743412); assay type: functional, cell-based
[6] = molecular target: T3, Luciferin 4-monooxygenase (Photinus pyralis, UniProt P08659); assay: inhibition of purified Photinus pyralis luciferase – biochemical, luminescence, dose response (AID 1891)
T3 sequence (P08659 whole entry): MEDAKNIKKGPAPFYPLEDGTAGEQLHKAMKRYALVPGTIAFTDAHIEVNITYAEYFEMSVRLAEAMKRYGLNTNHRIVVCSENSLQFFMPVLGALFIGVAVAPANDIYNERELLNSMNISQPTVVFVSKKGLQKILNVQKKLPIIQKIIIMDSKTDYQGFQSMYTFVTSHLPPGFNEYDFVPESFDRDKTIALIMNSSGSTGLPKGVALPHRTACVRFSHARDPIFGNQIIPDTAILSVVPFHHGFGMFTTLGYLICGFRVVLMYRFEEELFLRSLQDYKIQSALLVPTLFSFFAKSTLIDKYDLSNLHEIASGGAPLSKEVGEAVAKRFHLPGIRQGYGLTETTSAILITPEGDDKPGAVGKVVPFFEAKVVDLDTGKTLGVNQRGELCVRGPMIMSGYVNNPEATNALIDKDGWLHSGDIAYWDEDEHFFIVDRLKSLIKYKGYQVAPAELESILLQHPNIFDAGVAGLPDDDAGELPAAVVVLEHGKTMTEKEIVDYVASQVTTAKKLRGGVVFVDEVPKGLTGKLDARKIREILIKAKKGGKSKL

[7] = Shn3 3'UTR reporter signal decrease – cell-based, Clone20 osteoblasts, firefly luciferase, cherry-pick, set 2, Schnurri-3 inhibitor project, dose response (AID 720490); assay type: functional;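 further: actives lower the luminescence signal as inhibitors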
[8] = HEK-293T viability loss after treatment – luminescence, T-cell screen hits, cytotoxicity control for TCR NF-kB inhibitor project, dose response (AID 489026); assay type: functional, cell-based;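 further: cells exposed to compound about 14 hours before the viability readout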
[9] = viability loss in CEM21 cells – cell-based, CellTiter-Glo luminescence, cherry-picked, cytotoxicity control for viral fusion inhibitor project, dose response (AID 652042); assay type: functional;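 further: potency for signal decrease meaning cytotoxicity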
H4 [10] = assay: Inhibitors of Prion Protein 5' UTR mRNA Measured in Cell-Based System Using Plate Reader - 2078-01_Inhibitor_Dose_DryPowder_Activity. [Related pubchem assays (depositor defined):AID488894]; assay type: functional; conditions: Homo sapiens
[11] = blockade of melanocortin 4 receptor signaling – cell-based, plate reader, cherry pick, counter-screen for LGR2 antagonist project, dose response (AID 743444); assay type: functional;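 further: transfected HEK 293 cells stimulated with alpha-MSH peptide; potency of inhibitors of the alpha-MSH evoked signal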
[12] = off-target signal loss in HeLa-CEM21 co-culture – HeLa F-luc CTL cells, cherry-picked, counter-screen for HIV-1 Env fusion inhibitor project, dose response (AID 652040); assay type: functional, cell-based;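 further: potency for signal decrease marking cytotoxic or nonspecific inhibition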
[13] = blockers of HIV-1 envelope-mediated cell-cell fusion – cherry-pick, dose response (AID 652057); assay type: functional, cell-based
[14] = toxicity toward HepG2 liver cells – cell-based, plate reader, cherry-pick, antagonist series, cytotoxicity control, dose response (AID 743416); assay type: functional
[15] = Luminescence Cell-Based Dose Response HTS to Identify Inhibitors of 5'UTR Stem-Loop Driven Prion Protein mRNA Translation in H4 Neuroglioblastoma Cells. [Related pubchem assays: 1827 (Project Summary), 1813 (Primary HTS)]; assay type: functional
H4 [16] = assay: Amyloid Precursor 5' UTR neuroblastoma cell reporter line Measured in Cell-Based System Using Plate Reader - 2078-04_Inhibitor_Dose_DryPowder_Activity. [Related pubchem assays (depositor defined):AID488894]; assay type: functional; conditions: Homo sapiens
[17] = viability loss in HEK293 cells – cell-based, plate reader, cherry-picked samples, cytotoxicity control, dose response (AID 743446); assay type: functional
[18] = Luminescence Cell-Based Dose Confirmation HTS to Identify Inhibitors of Platelet Dense Granule Release. [Related pubchem assays: 1663 (Primary HTS), 1678 (Summary of Project)]; assay type: functional
[19] = alpha-synuclein stem-loop luciferase translation blockers – H4 neuroglioma cells, luminescence, confirmation (AID 1988); assay type: functional, cell-based
[20] = blockers of bursicon-stimulated LGR2 cAMP reporter – cell-based, HEK293, CRE-luciferase reporter, cherry pick, set 2, dose response (AID 743343); assay type: functional;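 further: transfected cells were stimulated with diluted bursicon conditioned medium after compound addition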
H4 [21] = assay: inhibitors of control reporter signal in H4 cells – cell-based, plate reader, dry powder samples, counter-screen for prion reporter project, dose response (AID 540255); assay type: functional; conditions: Homo sapiens
[22] = reduction of Shn3 3'UTR-driven luciferase in osteoblasts – cell-based, Clone20 osteoblasts, firefly luciferase, cherry-picked, dose response (AID 624132); assay type: functional;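 further: firefly luciferase luminescence from reporter carrying the Shn3 3'UTR in osteoblasts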
[23] = molecular target: T3, Luciferin 4-monooxygenase; assay: inhibition of purified Photinus pyralis luciferase – biochemical, dry powder samples, plate reader, dose response (AID 588451)
[24] = luciferase reporter signal suppression in cells – H4 neuroglioma cells, luminescence, dose response (AID 1990); assay type: functional, cell-based
[25] = blockers of HIV-1 ZM109 envelope-driven cell-cell fusion – HeLa effector, CEM target cells, luciferase, cherry-pick, dose response (AID 652058); assay type: functional, cell-based;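 further: luciferase signal from HIV-1 Env mediated cell-cell fusion of effector and target cells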
[26] = molecular target: FAD-linked sulfhydryl oxidase ALR (Homo sapiens, UniProt P55789); assay: ALR-catalysed DTT oxidation blockers – biochemical, H2O2 detection, luminescence, cherry-pick, dose response (AID 493248)
Sequence of FAD-linked sulfhydryl oxidase ALR (P55789 whole entry): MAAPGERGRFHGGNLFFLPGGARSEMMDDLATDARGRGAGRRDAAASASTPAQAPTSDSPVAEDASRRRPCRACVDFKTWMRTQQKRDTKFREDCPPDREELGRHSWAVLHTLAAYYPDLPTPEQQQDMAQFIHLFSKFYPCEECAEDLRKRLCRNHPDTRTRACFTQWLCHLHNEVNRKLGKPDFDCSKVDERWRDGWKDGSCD

Insulin-degrading enzyme [27] = molecular target: T4, Insulin-degrading enzyme (Homo sapiens, UniProt P14735); assay: recombinant IDE activation, cell-free – biochemical, fluorescence polarization, counter-screen for IDE activator project, dose response (AID 588681)
T4 sequence (P14735 whole entry): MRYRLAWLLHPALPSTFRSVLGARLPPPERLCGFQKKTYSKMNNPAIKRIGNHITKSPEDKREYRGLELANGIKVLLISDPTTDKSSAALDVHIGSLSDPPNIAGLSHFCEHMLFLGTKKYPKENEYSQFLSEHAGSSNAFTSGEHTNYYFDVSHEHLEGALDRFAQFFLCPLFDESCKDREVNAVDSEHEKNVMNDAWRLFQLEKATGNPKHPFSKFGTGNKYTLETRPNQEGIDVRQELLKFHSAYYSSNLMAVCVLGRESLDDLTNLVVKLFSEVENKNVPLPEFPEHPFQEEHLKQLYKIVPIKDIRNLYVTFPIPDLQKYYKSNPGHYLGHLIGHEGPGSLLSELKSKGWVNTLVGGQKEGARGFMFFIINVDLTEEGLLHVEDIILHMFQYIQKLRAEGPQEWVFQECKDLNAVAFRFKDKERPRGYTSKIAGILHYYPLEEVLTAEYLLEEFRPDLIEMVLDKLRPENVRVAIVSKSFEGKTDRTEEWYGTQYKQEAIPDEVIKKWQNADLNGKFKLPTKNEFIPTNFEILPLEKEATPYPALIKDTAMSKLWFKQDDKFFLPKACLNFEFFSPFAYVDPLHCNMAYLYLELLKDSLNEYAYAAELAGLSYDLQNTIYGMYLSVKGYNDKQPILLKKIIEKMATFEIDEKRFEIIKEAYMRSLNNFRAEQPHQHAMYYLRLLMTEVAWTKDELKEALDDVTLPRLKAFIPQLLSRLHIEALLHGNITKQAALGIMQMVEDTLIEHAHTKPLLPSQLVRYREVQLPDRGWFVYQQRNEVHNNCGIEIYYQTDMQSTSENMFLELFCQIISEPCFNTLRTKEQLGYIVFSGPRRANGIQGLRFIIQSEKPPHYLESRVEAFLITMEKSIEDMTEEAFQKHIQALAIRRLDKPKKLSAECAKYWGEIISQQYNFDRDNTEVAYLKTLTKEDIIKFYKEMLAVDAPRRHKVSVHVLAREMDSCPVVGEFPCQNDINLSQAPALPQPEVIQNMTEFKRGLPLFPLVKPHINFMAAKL

HEK293 [28] = assay: membrane integrity loss in HEK cells – cell-based, fluorescence, cytotoxicity control for IDE activator project, dose response (AID 588440); assay type: functional; conditions: Homo sapiens;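 further: cytotoxicity by LDH release measuring loss of membrane integrity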
HEK293 [29] = assay: optical interference in Abeta FP readout, dose response, artefact control for IDE activator project, biochemical, fluorescence polarization (AID 588442); assay type: functional, cell-based; conditions: Homo sapiens
Insulin-degrading enzyme [30] = molecular target: T4, Insulin-degrading enzyme; assay: cellular IDE activation of Abeta substrate cleavage – fluorescence polarization, HEK cells, dose response (AID 588439); assay type: functional, cell-based
[31] = molecular target: T5, C-C chemokine receptor type 6 (Homo sapiens, UniProt P51684); assay: analog antagonism of CCR6 beta-arrestin signaling – cell-based, luminescent beta-arrestin readout, SAR follow-up (AID 540334); assay type: functional
T5 sequence (P51684 whole entry): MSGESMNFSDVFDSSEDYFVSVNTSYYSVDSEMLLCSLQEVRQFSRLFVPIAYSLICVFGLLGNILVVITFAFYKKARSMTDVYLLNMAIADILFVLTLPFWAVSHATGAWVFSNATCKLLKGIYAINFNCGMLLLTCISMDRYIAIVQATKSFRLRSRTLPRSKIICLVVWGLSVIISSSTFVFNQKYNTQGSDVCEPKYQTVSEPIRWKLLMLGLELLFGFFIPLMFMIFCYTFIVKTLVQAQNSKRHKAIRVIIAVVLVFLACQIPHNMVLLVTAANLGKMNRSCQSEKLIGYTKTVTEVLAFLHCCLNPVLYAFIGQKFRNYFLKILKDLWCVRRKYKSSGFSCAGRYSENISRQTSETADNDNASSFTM

[32] = molecular target: C-X-C chemokine receptor type 5 (Homo sapiens, UniProt P32302); assay: inhibition of CXCL13-driven CXCR5 beta-arrestin recruitment – cell-based, luminescence, CHO-K1 PathHunter, selectivity assay for CCR6 antagonist project, SAR follow-up (AID 540340); assay type: functional
Sequence of C-X-C chemokine receptor type 5 (P32302 whole entry, the tested form may be a part): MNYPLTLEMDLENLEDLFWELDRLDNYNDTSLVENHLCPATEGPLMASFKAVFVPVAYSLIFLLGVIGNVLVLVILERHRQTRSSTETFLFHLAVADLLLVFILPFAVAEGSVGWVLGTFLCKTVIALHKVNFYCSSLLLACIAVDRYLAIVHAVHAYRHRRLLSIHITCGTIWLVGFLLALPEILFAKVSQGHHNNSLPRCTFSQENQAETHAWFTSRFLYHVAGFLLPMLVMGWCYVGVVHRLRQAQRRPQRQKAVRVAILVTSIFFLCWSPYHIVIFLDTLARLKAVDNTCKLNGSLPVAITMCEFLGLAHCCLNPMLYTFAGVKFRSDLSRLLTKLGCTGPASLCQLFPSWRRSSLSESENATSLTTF

Apelin receptor = Apelin receptor (Homo sapiens, UniProt P35414); assay: apelin receptor antagonists, arrestin read-out – cell-based, luminescent, enzyme-fragment complementation, selectivity assay for CCR6 antagonist project, SAR follow-up (AID 588359); assay type: functional
Sequence of Apelin receptor (P35414 whole entry, the tested form may be a part): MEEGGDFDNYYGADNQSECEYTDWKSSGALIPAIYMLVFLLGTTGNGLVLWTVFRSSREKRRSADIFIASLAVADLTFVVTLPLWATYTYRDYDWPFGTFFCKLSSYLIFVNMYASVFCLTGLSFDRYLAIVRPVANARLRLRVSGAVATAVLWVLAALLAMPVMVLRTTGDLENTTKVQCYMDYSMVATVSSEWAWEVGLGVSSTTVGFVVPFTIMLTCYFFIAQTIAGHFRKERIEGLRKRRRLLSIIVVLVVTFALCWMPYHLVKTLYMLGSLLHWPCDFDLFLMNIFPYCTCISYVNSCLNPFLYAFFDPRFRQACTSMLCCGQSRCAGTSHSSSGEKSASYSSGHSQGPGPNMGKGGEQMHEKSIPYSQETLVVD

[33] = THP-1 cell cytotoxicity, dose response, cytotoxicity control, set 3 (AID 504852); assay type: functional; conditions: Mycobacterium tuberculosis

C[C@]12CC[C@@H]3c4ccc(O[C@@H]5O[C@H](C(=O)O)[C@@H](O)[C@H](O)[C@H]5O)cc4CC[C@H]3[C@@H]1C[C@@H](O)[C@@H]2O
active: EC50 (Estrogen receptor) 9.16 µM | AC50 [2] 15.7 µM
> 195 µM (not active): EC50 [1]

Cc1c(C)c2ccc(OCC(=O)Nc3ccccn3)c(C)c2oc1=O
inactive: IC50 [8] > 80 µM
active: AC50 [3] 0.429 µM | AC50 [4] 37.1 µM | AC50 [5] 33.5 µM | EC50 [6] 0.629 µM | AC50 [7] 1.77 µM | AC50 [9] 35 µM | AC50 (H4 [10]) 0.027 µM | AC50 [11] < 0.068 µM | AC50 [12] 1.83 µM | AC50 [13] 1.71 µM | AC50 [14] 25.3 µM | EC50 [15] 0.214 µM | AC50 (H4 [16]) 0.0103 µM | AC50 [17] 48.7 µM | EC50 [18] 2.73 µM | EC50 [19] 0.236 µM | AC50 [20] 0.0802 µM | AC50 (H4 [21]) 0.021 µM | AC50 [22] 0.416 µM | AC50 [23] 0.101 µM | EC50 [24] 0.36 µM | EC50 [1] < 0.16 µM | AC50 [25] 6.61 µM

COc1cccc(CNc2ccc3c(c2)ncn3C(C)C)c1OC
inactive: EC50 (Insulin-degrading enzyme [27]) > 54.7 µM | IC50 (HEK293 [28]) > 89.2 µM | EC50 (HEK293 [29]) > 55.9 µM | EC50 (Insulin-degrading enzyme [30]) 43.8 µM
active: AC50 [26] 2.58 µM

C/C=C(\C)C(=O)OC1[C@H](OC(C)=O)C2(CO)C(CC1(C)C)C1=CCC3C4(C)CCC(O[C@@H]5O[C@H](C(=O)O)[C@@H](O[C@@H]6O[C@H](CO)[C@@H](O)[C@H](O)[C@H]6O)[C@H](O)[C@H]5O[C@H]5O[C@H](CO)[C@@H](O)[C@H](O)[C@H]5O)[C@](C)(CO)C4CCC3(C)[C@]1(C)C[C@H]2O (stereo partly specified)
inactive: IC50 [32] 9.46 µM
active: IC50 [31] 7.82 µM | IC50 (Apelin receptor) 9.07 µM

CCOC1OC(=O)C(Cl)=C1Nc1ccccc1C (stereo unspecified)
active: CC50 [33] > 100 µM
